# Patent US9630894B2, “Energy efficient method and apparatus for the extraction of biomolecules from dilute aqueous solution” (DYNASEP INC., priority 2012, dated 2017)
# “Also recorded” adds a separate entry of the source.
# System: fermentation cultures
# Assay: DME toxicity study: cell growth by absorption at 600 nm (A600)
# Format: cell-based
# Experimental: Toxicity studies were performed to determine the effects of DME on fermentation cultures. Cell growth, viability and solvent production were measured to determine what effect DME has on fermentation cultures. Cell growth was monitored by absorption measurements taken at 600 nm (A600). Viability was measured by counting the colony forming units (CFU) after 24 hours. Solvent production was quantified by HPLC.
# The first round of testing was performed using media that had been sparged with DME gas at 23° C. The amount of DME absorbed into the media was measured by weight gain after sparging. […] Two control cultures were also used for direct comparison of cultures with and without the presence of DME.
# A second round of testing was performed at lower DME concentrations. […] Based on the solvent measurements in Table 8 and Table 9 solvent production was also unaffected by DME at 0.7 wt. %. […] This is apparent after examination of the cell density and solvent production for samples 1-5, 2-1, 2-4 and 2-5 in comparison to the control samples 1-B and 2-B.
smiles,measurement,setting,value
"COC [DME, dimethyl ether]",effect on growth and solvent production,DME above 2.5 wt. % (2.5 to 3 wt. %),substantial decrease; also recorded: more substantially inhibited; also recorded: severely inhibit
same,effect on growth and solvent production,DME approximately 1.6 wt. %,some inhibition; also recorded: partially inhibit
same,effect on cell growth and solvent production,DME below 0.7 wt. %,did not appear to inhibit growth; also recorded: do not have a noticeable effect; also recorded: have no observable effect; also recorded: no noticeable effect
same,A600,"culture 1-1, […] DME, 4 hours",0.184
same,A600,"culture 1-1, […] DME, 7 hours",0.241
same,A600,"culture 1-1, […] DME, 28 hours",0.137
same,A600,"culture 1-1, […] DME, 196 hours",0.075
same,A600,"culture 1-2, 3.48% DME, 4 hours",0.205
same,A600,"culture 1-2, 3.48% DME, 7 hours",0.194
same,A600,"culture 1-2, 3.48% DME, 28 hours",0.175
same,A600,"culture 1-2, 3.48% DME, 196 hours",0.39
same,A600 values,"culture 1-2, DME 18.1 g/L, 3 hours",0.523
same,A600 values,"culture 1-2, DME 18.1 g/L, 24 hours",2.565
same,A600 values,"culture 1-2, DME 18.1 g/L, 40 hours",1.82
same,A600 values,"culture 1-2, DME 18.1 g/L, 64 hours",1.97
same,A600 values,"culture 1-3, DME 19.4 g/L, 3 hours",0.463
same,A600 values,"culture 1-3, DME 19.4 g/L, 24 hours",2.695
same,A600 values,"culture 1-3, DME 19.4 g/L, 40 hours",2.16
same,A600 values,"culture 1-3, DME 19.4 g/L, 64 hours",2.15
same,A600,"culture 1-3, […] DME, 4 hours",0.340
same,A600,"culture 1-3, […] DME, 7 hours",0.690
same,A600,"culture 1-3, […] DME, 22 hours",1.745
same,A600,"culture 1-3, […] DME, 28 hours",1.69
same,A600,"culture 1-3, […] DME, 196 hours",1.08
same,A600 values,"culture 1-4*, DME 43.8 g/L, 3 hours",0.807
same,A600 values,"culture 1-4*, DME 43.8 g/L, 24 hours",3.005
same,A600 values,"culture 1-4*, DME 43.8 g/L, 40 hours",1.95
same,A600 values,"culture 1-4*, DME 43.8 g/L, 64 hours",2.14
same,A600 values,"culture 1-5, DME 25.8 g/L, 3 hours",0.543
same,A600 values,"culture 1-5, DME 25.8 g/L, 24 hours",1.415
same,A600 values,"culture 1-5, DME 25.8 g/L, 40 hours",1.28
same,A600 values,"culture 1-5, DME 25.8 g/L, 64 hours",1.26
same,A600 values,"culture 2-1, DME 26.0 g/L, 3 hours",0.505
same,A600 values,"culture 2-1, DME 26.0 g/L, 24 hours",1.390
same,A600 values,"culture 2-1, DME 26.0 g/L, 40 hours",2.48
same,A600 values,"culture 2-1, DME 26.0 g/L, 64 hours",2.24
same,A600,"culture 2-1, weight % DME printed as ?, 4 hours",0.140
same,A600,"culture 2-1, weight % DME printed as ?, 7 hours",0.157
same,A600,"culture 2-1, weight % DME printed as ?, 28 hours",0.072
same,A600,"culture 2-1, weight % DME printed as ?, 196 hours",0.05
same,A600,"culture 2-2, 3.92% DME, 4 hours",0.173
same,A600,"culture 2-2, 3.92% DME, 7 hours",0.178
same,A600,"culture 2-2, 3.92% DME, 28 hours",0.127
same,A600,"culture 2-2, 3.92% DME, 196 hours",0.32
same,A600 values,"culture 2-2, DME 6.8 g/L, 3 hours",0.776
same,A600 values,"culture 2-2, DME 6.8 g/L, 24 hours",3.755
same,A600 values,"culture 2-2, DME 6.8 g/L, 40 hours",1.29
same,A600 values,"culture 2-2, DME 6.8 g/L, 64 hours",1.36
same,A600,"culture 2-3, 3.72% DME, 4 hours",0.230
same,A600,"culture 2-3, 3.72% DME, 7 hours",0.159
same,A600,"culture 2-3, 3.72% DME, 28 hours",0.077
same,A600,"culture 2-3, 3.72% DME, 196 hours",0.06
same,A600 values,"culture 2-3, DME 6.6 g/L, 3 hours",0.783
same,A600 values,"culture 2-3, DME 6.6 g/L, 24 hours",3.700
same,A600 values,"culture 2-3, DME 6.6 g/L, 40 hours",2.65
same,A600 values,"culture 2-3, DME 6.6 g/L, 64 hours",2.63
same,A600 values,"culture 2-4, DME 29.1 g/L, 3 hours",0.590
same,A600 values,"culture 2-4, DME 29.1 g/L, 24 hours",1.195
same,A600 values,"culture 2-4, DME 29.1 g/L, 40 hours",2.63
same,A600 values,"culture 2-4, DME 29.1 g/L, 64 hours",2.19
same,A600 values,"culture 2-5, DME 27.9 g/L, 3 hours",0.885
same,A600 values,"culture 2-5, DME 27.9 g/L, 24 hours",1.735
same,A600 values,"culture 2-5, DME 27.9 g/L, 40 hours",1.18
same,A600 values,"culture 2-5, DME 27.9 g/L, 64 hours",1.19
same,effect on cell growth,media containing 3 to 4 wt. % DME,substantial reduction in cell growth
